Test results from US8226972B2, “Vaginal delivery of drugs” (FemmePharma Holding Company, Inc., priority 2001, dated 2012).

What was measured:
blood pressure [1] = assay: Example 1: blood pressure response to intra-arterial Ach after vaginal oxybutynin gel; assay type: in vivo, rabbit
Source text: (§1) 16 mature female New Zealand white rabbits were separated into two groups of eight. The rabbits in Group 1 received a high dose oxybutynin formulations; and the rabbits in Group 2 received a low dose oxybutynin formulation. For the high dose, 3 grams (g) of oxybutynin HCl were suspended in 6 g of gel (yielding a concentration of 0.5 g Oxybutynin/g gel) and 3 g of the formulation were placed in the vagina. For the low dose, 0.3 g of oxybutynin HCl were suspended in 6 g of gel (yielding a concentration of 0.05 g Oxybutynin/g gel), and 3 g of the formulation were placed in the vagina.
(§2) Each rabbit was sedated with an intramuscular injection of ketamine-xylazine ((25 mg ketamine+6 mg xylazine)/kg rabbit) and anesthesia was maintained by isoflurane. After anesthesia, the right external carotid artery was cannulated for blood pressure monitoring. A polyethylene catheter (Intramedic) with an outer diameter of 0.043 inches was inserted through the rabbit's right femoral artery until it reached the lower abdominal aorta (approximately 0.5 cm above the bifurcation of the aorta). A heparizined saline (30 iu/mL) filled polyethylene catheter was used for intra-arterial administration of drugs. To facilitate the delivery of the maximum amount of drugs to the urinary bladder, the rabbit's left femoral artery was ligated.
(§3) Acetylcholine (Ach), a chemical that causes the bladder muscle (detrusor) to squeeze or contract, was injected through the intra-arterial polyethylene catheter in a volume of 0.31-0.39 mL (i.e., 0.1 mL/kg of rabbit), followed by 0.2 mL of heparinized saline. Change of intravesical pressure following the administration of Ach (10^−6 mol/kg) was monitored by the pressure transducer and recorded on a Grass model 7D polygraph. A 10-minute interval passed between Ach administrations, and three flushes of normal saline, in an amount of 0.1 ml/kg of rabbit, were administered. Three responses to Ach were performed at 10-minute intervals to ensure consistent responses.
(§4) After the third Ach administration, the application of the oxybutynin containing gel was administered to the vagina and the responses to Ach were determined at 15-minute intervals for 2 hours. When the response to Ach was reduced, then the time period was extended to 4 hours. At the end of the experiment, a second cystometric curve was generated.

bladder [2] = assay: Example 2: bladder contractile response to intra-arterial Ach; assay type: in vivo, rabbit
Source text: as §1, §3, §4
The protocol described in Example 1 was followed in this experiment, with the following changes. The infusion pump was turned on and, at an infusion rate of 1.42 mL/minute, a cystometric curve was generated.

blood pressure [3] = assay: Example 2: vascular response to Ach; assay type: in vivo, rabbit; settings: entire 4-hour period
Source text: as §1
Each rabbit was sedated with an intramuscular injection of ketamine-xylazine ((25 mg ketamine+6 mg xylazine)/kg rabbit) and anesthesia was maintained by isoflurane. […]
Acetylcholine (Ach), a chemical that causes the bladder muscle (detrusor) to squeeze or contract, was injected through the intra-arterial polyethylene catheter in a volume of 0.31-0.39 mL (i.e., 0.1 mL/kg of rabbit), followed by 0.2 mL of heparinized saline. Change of intravesical pressure following the administration of Ach (10^−6 mol/kg) was monitored by the pressure transducer and recorded on a Grass model 7D polygraph. […]
After the third Ach administration, the application of the oxybutynin containing gel was administered to the vagina and the responses to Ach were determined at 15-minute intervals for 2 hours. […]

bladder [4] = assay: Example 3: bladder response to intra-arterial Ach (model for hyperreflexia); assay type: in vivo, rabbit
Procedure: (§5) 30 mature female New Zealand white rabbits (˜4 kg) were separated into five groups of six rabbits each. Intra arterial administration of Ach was used as a model for hyperreflexia. The effects on intra arterial stimulated contraction were compared with effects on micturition pressure generation.
as §2, with “Central Mutual” for “cm”
(§6) The bladder was exposed through a midline incision, and the bladder dome was catheterized with an 8 F catheter for both the monitoring of bladder pressure and for cystometry. The bladder neck-urethra was ligated to prevent micturition or leakage through the urethra. The catheter was connected to an infusion pump (Harvard Apparatus) and a pressure tranducer. The right carotid artery was cannulated for monitoring blood pressure. Bladder pressure and blood pressure were recorded on a Grass model 7D Polygraph, and were simultaneously digitized using a Polyview A/D digital analytical system.
Cystometry was performed at 1.4 mL/min until a micturition contraction or a volume of 80 mL was obtained. After the first cystometry, Ach (10^−6 mol/kg) was injected through the intra-arterial polyethylene catheter in a volume of 0.1 ml/kg followed by three washes of 0.2 ml of heparinized saline. The blood pressure and bladder pressure responses were recorded and digitized.
After three consistent Ach tests, (i.e. responses within 20% of each other) the rabbits in the control group (Group 1) received a vaginal administration of 3 mL of gel (no oxybutynin); the rabbits in the high dose group (Group 2) received a vaginal administration of 1.5 g of oxybutynin suspended in 3 mL of gel; the rabbits in the intermediate dose group (Group 3) received 0.5 g of oxybutynin suspended in 3 mL of gel; the rabbits in the low dose group (Group 4) received a vaginal administration of 0.15 g of oxybutynin suspended in 3 mL of gel; and the rabbits in the oral dose group (Group 5) received 0.5 g of an oral preparation of oxybutynin dissolved in 3 mL of saline.
Ach was administered at 10 minute intervals for two hours, and then a second cystometry was performed. Ach administration continued at 10 minute intervals for a second two hour period, and then a final cystometry performed.
Statistical significance was determined using analysis of variance followed by Bonferroni test for individual differences. A p<0.05 was required for significance.

blood pressure [5] = assay: Example 3: vascular (blood pressure) response to Ach; assay type: in vivo, rabbit
Procedure: as §5
as §2, with “Central Mutual” for “cm”
as §6
Cystometry was performed at 1.4 mL/min until a micturition contraction or a volume of 80 mL was obtained. […] The blood pressure and bladder pressure responses were recorded and digitized. […]
Statistical significance was determined using analysis of variance followed by Bonferroni test for individual differences. […]

urgency incontinence = assay: Example 4: clinical case studies, urgency incontinence / urinary frequency, urgency and nocturia; assay type: in vivo, human; settings: person
Procedure: A person developed urgency incontinence two years after their laparoscopically assisted vaginal hysterectomy. […] However they experienced side effects, such as dry mouth, from the drug. Two weeks later, they started applying oxybutynin (5 mg) into the vagina at bed time, instead of Ditropan XL. […] The patient used vaginal oxybutynin (5 mg) at bed time for 6 months.
A person with a history of chronic pelvic pain and multiple surgical procedures, including pain mapping under conscious sedation and repair of occult bilateral inguinal hernias, developed urinary frequency, urgency and nocturia. Their urine analysis and urine culture were negative for signs of urinary tract infection. Their treatment began with vaginal oxybutynin (5 mg) once daily, at bed time, applied into the vagina.

[6] = solid device containing oxybutynin inserted in the vagina of a rabbit (Schröder); cited from earlier work
[7] = 5 mg into the vagina at bed time
[8] = 5 mg into the vagina twice daily
[9] = vaginal 5 mg at bed time for 6 months

CCN(CC)CC#CCOC(=O)C(O)(c1ccccc1)C1CCCCC1 (stereo not shown) [oxybutynin]
response of the blood pressure to Ach (blood pressure [1]; high dose (0.5 g/g gel) vaginal, 15 minutes after administration): clear response | response of the blood pressure to Ach (blood pressure [1]; high dose (0.5 g/g gel) vaginal, 4 hours after administration): decreased | effect on blood pressure response to Ach (blood pressure [1]; low dose (0.05 g/g gel) vaginal, two out of three experiments): no significant effect | response of the blood pressure to Ach (blood pressure [1]; vaginally delivered high dose, overall): without having any significant effects | contractile response to intra-arterial Ach (bladder [2]; high dose vaginal, after 4 hours): not restored | contractile response to intra-arterial Ach (bladder [2]; high dose vaginal, at 15 minutes): complete inhibition | contractile response to intra-arterial Ach (bladder [2]; low dose vaginal, at 45 minutes): decreased response | intravesical pressure response to intra-arterial Ach (bladder [2]; low dose vaginal, from 45 minutes for the remaining 2.25 hours): about 7 cm H2O | vascular response to Ach (blood pressure [3]; high dose vaginal): no effect | vascular response to Ach (blood pressure [3]; low dose vaginal): no effect | response to Ach compared to the control response (bladder [4]; all preparations of oxybutynin): statistically significant decrease | onset of action (bladder [4]; high dose vaginal): very fast | response to Ach (bladder [4]; high dose vaginal, at 30 minutes, remained active throughout the 4 hour study): completely inhibited | response to acetylcholine (bladder [4]; highest dose): completely eliminated | response to Ach (bladder [4]; intermediate vaginal dose, reached over 90 minutes, remaining for the rest of the experiment): approximately 40 % of control | response to Ach (bladder [4]; low vaginal dose, reached over 90 minutes, remaining for the rest of the experiment): approximately 40 % of control | response to Ach (bladder [4]; oral, reached over 90 minutes, remaining for the rest of the experiment): approximately 40 % of control | vascular response to Ach (blood pressure [5]; any dose, vaginally delivered, entire 4 hour period): no effect | effects on the cardiovascular system (blood pressure [5]; highest dose): only minor effects | blood pressure response to Ach (blood pressure [5]; oral): inhibitory effects | side effects (urgency incontinence; [7]): did not experience any noticeable side effects | urgency symptoms (urgency incontinence; [7]): improved remarkably | improvement of symptoms (urgency incontinence; [8]): remarkable improvement | side effects (urgency incontinence; [8]): no significant side effects | control of symptoms of urgency incontinence (urgency incontinence; [9]): remained effective | side effects (urgency incontinence; [9]): did not suffer from any side effects | improvement of urinary frequency, urgency and nocturia (urgency incontinence; vaginal 5 mg once daily at bed time): significant improvement | systemic levels of oxybutynin [6]: effective at reducing the systemic levels
